According to patent publication US20100248226A1, “METHODS FOR MEASURING CELL RESPONSE TO DNA DAMAGING AGENTS USING PROMYELOCYTIC LEUKEMIA PROTEIN NUCLEAR BODIES” (priority 2006, published 2010):
Read-outs that look alike come from different tables or passages of the source.

How the values were obtained:
[1] = tested on: PML NBs in normal human diploid fibroblast (NHDF) cell line GM05757; format: cell-based
Excerpt: (§1) Cell Culture and drug treatments. Cell lines used in this study: NDHFs (GM05757, Coriell Cell Repository); human AT fibroblasts (a.k.a. AT5B1, GM05823; Coriell); human NBS-T fibroblasts (gift of J. Lukas, Danish Cancer Society, Copenhagen, Denmark); human ATLD fibroblasts (gift of Y. Shiloh, Tel Aviv University, Tel Aviv, Israel) Saos-2 (American Tissue Culture Type Collection (ATCC), HCT116 and p53 null HCT116 isogenic cells (gift of Dr. B. Vogelstein, Department of Oncology, John Hopkins University, Baltimore, Md.); ATR-DN and ATR-WT cells (gift of Dr. Paul Nghiem, University of Washington Medical School, Seattle, Wash.); Seckel syndrome cells (GM18366, Coriell); Chk2−/−MEFs and isogenic WT MEFs (gift of Dr. T. Mak, University of Toronto, Toronto); and isogenic and U2OS cells stably expressing GFP-PML IV (gift of J. Taylor, U. Wisconsin, Milwaukee, Wis.). NBST-pBabe and NBST-pBabe-NBS1 cells lines were generated by retroviral transduction of NBS-T fibroblasts using either pBabe-Puro alone or encoding full length human NBS1 (gift of J. Lukas), respectively. […] Alternately, asynchronous cell cultures were exposed to whole-cell ionizing radiation (IR)(dose range, 0-20 Gy) using a ^137Cs irradiator (MDS Nordion, Ottawa, Canada) at 1 Gy/min (on ice, aerobic conditions). […]
(§2) IF detection of proteins, live-cell imaging and fluorescence recovery after photobleaching (FRAP). […]

PML protein in NHDFs = format: cell-based, human; settings: CHX 30 min prior and maintained
Excerpt: Cell Culture and drug treatments. Cell lines used in this study: NDHFs (GM05757, Coriell Cell Repository); human AT fibroblasts (a.k.a. AT5B1, GM05823; Coriell); human NBS-T fibroblasts (gift of J. Lukas, Danish Cancer Society, Copenhagen, Denmark); human ATLD fibroblasts (gift of Y. Shiloh, Tel Aviv University, Tel Aviv, Israel) Saos-2 (American Tissue Culture Type Collection (ATCC), HCT116 and p53 null HCT116 isogenic cells (gift of Dr. B. Vogelstein, Department of Oncology, John Hopkins University, Baltimore, Md.); ATR-DN and ATR-WT cells (gift of Dr. Paul Nghiem, University of Washington Medical School, Seattle, Wash.); Seckel syndrome cells (GM18366, Coriell); Chk2−/−MEFs and isogenic WT MEFs (gift of Dr. T. Mak, University of Toronto, Toronto); and isogenic and U2OS cells stably expressing GFP-PML IV (gift of J. Taylor, U. Wisconsin, Milwaukee, Wis.). NBST-pBabe and NBST-pBabe-NBS1 cells lines were generated by retroviral transduction of NBS-T fibroblasts using either pBabe-Puro alone or encoding full length human NBS1 (gift of J. Lukas), respectively. […] Alternately, asynchronous cell cultures were exposed to whole-cell ionizing radiation (IR)(dose range, 0-20 Gy) using a ^137Cs irradiator (MDS Nordion, Ottawa, Canada) at 1 Gy/min (on ice, aerobic conditions). […] Cells were then maintained in growth medium containing kinase inhibitors for the indicated time.

NHDFs = experiment: BrdU incorporation (DNA synthesis) after VP16, NHDF; format: cell-based, human; settings: NHDFs treated with CHX, 18 h post-VP16 treatment
Method: Cells were prepared for immunolabelling as described (Eskiw et al., 2003). To label with BrdU, cells were pulsed with 20 μM BrdU for 30 minutes, fixed in methanol for 30 minutes at −20° C. The methanol was removed and 4N HCl was added to the cells for 2 minutes at room temperature (RT). Cells were washed 3× with PBS at RT. Primary antibodies used were: mouse anti-PML, clone 5E10 (1:10)(a gift from R. van Driel, University of Amsterdam, The Netherlands), rabbit anti-PML (1:1000)(Chemicon, AB1370); rabbit anti-Sp100 (1:500)(Chemicon, Ab1380); mouse anti-RPA (1:200)(Calbiochem, RPA34-20); mouse anti-phospho-Histone H3 (ser10) (1:500)(Upstate, MC463); rabbit anti-Cyclin A (1:200)(Santa Cruz, sc-751); mouse anti-SUMO1 (1:20)(Zymed, GMP-1); mouse anti-y-H2AX (1:500)(Upstate, JBW301); mouse anti-BrdU (1:10)(BD Biosciences, clone B44). Secondary antibodies used were donkey anti-mouse or rabbit Cy3 and Cy5 (Jackson Laboratories). […] For fluorescence microscopy, coverslips were mounted on glass slides using 90% glycerol/PBS containing 1 mg/ml paraphenlenediamine and 1 μg/ml 4′,6-Diamidino-2-phenylindole (DAPI). Images were collected on a Leica Microsystems DMRA2 upright microscope equipped with a Hamamatsu ORCA-ER camera using the 63×1.32 NA oil-immersion objective. […] OpenLab 3.5.1 (Improvision) software was used to collect images, and the images were processed with Photoshop 7.0 (Adobe). […]

[2] = tested on: PML NBs in NHDF cell line GM05757; experiment: Kinase inhibitor effect on the PML NB number increase in response to DSBs; format: cell-based, human
Excerpt: as §1, §2

NHDFs (GM05757) = experiment: FACS cell cycle analysis; format: cell-based, human; settings: NHDFs by 18 h after VP16 treatment
Method: Cells were harvested and pelleted. The pellet was resuspended in 50 μl HBSS with 2% FBS. Cells were fixed with 1 ml ice-cold 80% ethanol for 30 minutes on ice. Cells were pelleted and resuspended in HBSS containing 0.1 mg/ml propidium iodide (Sigma) and 0.6% NP-40 to final concentration of 2×10^6 cells/ml. An equal volume of 2 mg/ml RNase in HBSS was added and incubated at room temperature in the dark for 30 minutes. This solution was then filtered through a 40 μm nylon mesh (BD Biosciences) and keep on ice until analysis. Cells were analyzed on a FACscan flowcytometer (BD Biosciences). Data analysis was performed using FlowJo 6.0 (Tree Star).

[3] = tested on: PML NBs in NHDFs (GM05757); experiment: Correlative LM/ESI ultrastructure of PML NBs; format: cell-based, human; settings: 20 μM VP16 for 30 min, NHDF
Method: Correlative Microscopy and Electron Spectroscopic Imaging—Samples were prepared and sectioned for correlative microscopy and electron spectroscopic imaging (ESI) as previously described (Eskiw et al., 2003; Dellaire et al., 2004). Nitrogen and phosphorus maps were collected using an FEI Technai 20 transmission electron microscope fitted with an electron imaging spectrometer (Gatan). Immuno-gold labeling was accomplished using a secondary antibody conjugated to Ultra-small nanogold (donkey anti-rabbit, EMS, Cat. 25100).

C[C@@H]1C[C@@H]([C@H](O)CC2CC(=O)NC(=O)C2)C(=O)[C@@H](C)C1 [CHX, cycloheximide]
PML NB number initially, compared to untreated cells ([1]; CHX-treated NHDFs, VP16 treatment): higher number of PML NBs initially
effect on DNA damage-dependent increase in PML protein levels (PML protein in NHDFs; 4 h after VP16): little effect
effect on DNA damage-dependent increase in PML protein levels (PML protein in NHDFs; 12 h after VP16): inhibited
BrdU incorporation (NHDFs): no BrdU incorporation

NC(=O)c1ccc2nc(-c3ccc(Oc4ccc(Cl)cc4)cc3)[nH]c2c1 [Chk2 kinase inhibitor II]
effect on PML NB number at 3 h following VP16 treatment ([2]; 10 μM Chk2 inhibitor II or 20 μM wortmannin pre-treatment, versus VP16 without inhibitor): significantly reduce
effect on the initial increase in PML NBs in response to VP16 ([2]; 10 μM inhibitor pre-treatment, 30 min time point): did not affect

COc1cc([C@@H]2c3cc4c(cc3[C@@H](O[C@@H]3O[C@@H]5CO[C@@H](C)O[C@H]5[C@H](O)[C@H]3O)[C@H]3COC(=O)[C@H]23)OCO4)cc(OC)c1O [VP16, etoposide]
cell cycle distribution (NHDFs (GM05757)): marked accumulation in G1 and G2 phase
PML NB ultrastructure (symmetry, chromatin contacts) [3]: lose their radial symmetry and make fewer contacts with the surrounding chromatin fibres

COc1cccc2c1C(=O)c1c(O)c3c(c(O)c1C2=O)C[C@@](O)(C(=O)CO)C[C@@H]3O[C@H]1C[C@H](N)[C@H](O)[C@H](C)O1 [doxorubicin]
time after treatment at which γ-H2AX signal and PML NB number peaked ([1]; 20 μM VP16 or 1.5 μM doxorubicin for 30 min, NHDF GM05757): 3 h
